Experiments:
[1] = target: Inhibitor of nuclear factor kappa-B kinase subunit alpha (Homo sapiens) (UniProt O15111); experiment: Inhibition of wild-type human full length IKK-alpha (M1 to E745 residues) expressed in mammalian expression system assessed as residual activity at 1 uM by Kinomescan method relative to control
[2] = target: Serine/threonine-protein kinase N3 (Homo sapiens) (UniProt Q6P5Z2); experiment: Inhibition of PKN3 (unknown origin) assessed as residual activity at 1 uM by Kinomescan method relative to control
[3] = target: Serine/threonine-protein kinase Nek1 (Homo sapiens) (UniProt Q96PY6); experiment: Inhibition of wild-type human partial length NEK1 (M1 to K278 residues) expressed in bacterial expression system assessed as residual activity at 1 uM by Kinomescan method relative to control
[4] = target: Ephrin type-A receptor 3 (Homo sapiens) (UniProt P29320); experiment: Inhibition of wild-type human partial length EPHA3 (D604 to K889 residues) expressed in bacterial expression system assessed as residual activity at 1 uM by Kinomescan method relative to control
[5] = target: Mitogen-activated protein kinase 9 (Homo sapiens) (UniProt P45984); experiment: Inhibition of wild-type human full length JNK2 (M1 to Q382 residues) expressed in mammalian expression system assessed as residual activity at 1 uM by Kinomescan method relative to control
[6] = target: T1, Interleukin-1 receptor-associated kinase 4 (Homo sapiens) (UniProt Q9NWZ3); experiment: Inhibition of wild-type human partial length IRAK4 (M1 to S460 residues) expressed in mammalian expression system assessed as residual activity at 1 uM by Kinomescan method relative to control
T1 sequence (whole entry): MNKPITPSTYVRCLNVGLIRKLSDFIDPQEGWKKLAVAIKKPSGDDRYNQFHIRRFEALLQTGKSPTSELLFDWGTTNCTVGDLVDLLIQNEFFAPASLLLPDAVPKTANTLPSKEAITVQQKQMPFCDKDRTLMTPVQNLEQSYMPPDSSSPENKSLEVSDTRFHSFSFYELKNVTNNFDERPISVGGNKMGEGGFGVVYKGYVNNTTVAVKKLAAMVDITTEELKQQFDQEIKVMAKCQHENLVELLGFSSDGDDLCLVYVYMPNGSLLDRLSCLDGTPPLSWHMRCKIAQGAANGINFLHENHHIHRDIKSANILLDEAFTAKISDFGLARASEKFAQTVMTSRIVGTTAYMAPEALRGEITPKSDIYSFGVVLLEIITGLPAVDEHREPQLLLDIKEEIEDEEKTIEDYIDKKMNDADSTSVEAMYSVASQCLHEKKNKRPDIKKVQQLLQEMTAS

[7] = target: CDK6/cyclin D3 (Homo sapiens) (UniProt P30281+Q00534); experiment: Inhibition of wild-type human full length CDK6 (M1 to A326 residues)/cyclin D3 expressed in mammalian expression system assessed as residual activity at 1 uM by Kinomescan method relative to control
[8] = target: Serine/threonine-protein kinase MRCK gamma (Homo sapiens) (UniProt Q6DT37); experiment: Inhibition of wild-type human partial length DMPK2 (S46 to S408 residues) expressed in bacterial expression system assessed as residual activity at 1 uM by Kinomescan method relative to control
[9] = target: Aurora kinase C (Homo sapiens) (UniProt Q9UQB9); experiment: Inhibition of wild-type human full length AURKC (M1 to S275 residues) expressed in bacterial expression system assessed as residual activity at 1 uM by Kinomescan method relative to control
[10] = target: Calcium/calmodulin-dependent protein kinase type II subunit delta (Homo sapiens) (UniProt Q13557); experiment: Inhibition of wild-type human partial length CAMK2D (M1 to E329 residues) expressed in bacterial expression system assessed as residual activity at 1 uM by Kinomescan method relative to control
[11] = target: G protein-coupled receptor kinase 6 (Homo sapiens) (UniProt P43250); experiment: Inhibition of GRK6 (unknown origin) assessed as residual activity at 1 uM by Kinomescan method relative to control
[12] = In vivo inhibition of LRRK2 in Han-Wistar rat assessed as reduction in Ser935 phosphorylation in kidney at 10 to 100 mg/kg, po by Western blot analysis; type: functional; design: scale not given: the % may be the effect or the level left; settings: dose 10-100 mg/kg
[13] = target: Calcium/calmodulin-dependent protein kinase type 1B (Homo sapiens) (UniProt Q6P2M8); experiment: Inhibition of wild-type human partial length CAMK1B (W9 to A311 residues) expressed in mammalian expression system assessed as residual activity at 1 uM by Kinomescan method relative to control
[14] = target: Serine/threonine-protein kinase D2 (Homo sapiens) (UniProt Q9BZL6); experiment: Inhibition of wild-type human partial length PRKD2 (A519 to E838 residues) expressed in bacterial expression system assessed as residual activity at 1 uM by Kinomescan method relative to control
[15] = target: Protein-tyrosine kinase 2-beta (Homo sapiens) (UniProt Q14289); experiment: Inhibition of wild-type human full length PYK2 (M1 to E967 residues) expressed in bacterial expression system assessed as residual activity at 1 uM by Kinomescan method relative to control
[16] = target: Tyrosine-protein kinase Fyn (Homo sapiens) (UniProt P06241); experiment: Inhibition of wild-type human partial length FYN (T243 to L534 residues) expressed in bacterial expression system assessed as residual activity at 1 uM by Kinomescan method relative to control
[17] = target: Serine/threonine-protein kinase NLK (Homo sapiens) (UniProt Q9UBE8); experiment: Inhibition of wild-type human full length NLK (M13 to E527 residues) expressed in bacterial expression system assessed as residual activity at 1 uM by Kinomescan method relative to control
[18] = target: Dual specificity mitogen-activated protein kinase kinase 2 (Homo sapiens) (UniProt P36507); experiment: Inhibition of wild-type human full length MEK2 (M1 to V400 residues) expressed in mammalian expression system assessed as residual activity at 1 uM by Kinomescan method relative to control
[19] = target: Ribosomal protein S6 kinase alpha-6 (Homo sapiens) (UniProt Q9UK32); experiment: Inhibition of wild-type human partial length N-terminal RSK4 kinase domain 1 (M1 to E397 residues) expressed in mammalian expression system assessed as residual activity at 1 uM by Kinomescan method relative to control
[20] = target: Mitogen-activated protein kinase kinase kinase kinase 2 (Homo sapiens) (UniProt Q12851); experiment: Inhibition of wild-type human partial length MAP4K2 (M1 to G318 residues) expressed in mammalian expression system assessed as residual activity at 1 uM by Kinomescan method relative to control
[21] = target: Serine/threonine-protein kinase Sgk2 (Homo sapiens) (UniProt Q9HBY8); experiment: Inhibition of wild-type human partial length SGK2 (L54 to C427 residues) expressed in mammalian expression system assessed as residual activity at 1 uM by Kinomescan method relative to control
[22] = target: Mitogen-activated protein kinase kinase kinase 9 (Homo sapiens) (UniProt P80192); experiment: Inhibition of wild-type human partial length MLK1 (V88 to W426 residues) expressed in bacterial expression system assessed as residual activity at 1 uM by Kinomescan method relative to control

Sequence of Aurora kinase C (Homo sapiens) (Q9UQB9 whole entry, the tested form may be a part): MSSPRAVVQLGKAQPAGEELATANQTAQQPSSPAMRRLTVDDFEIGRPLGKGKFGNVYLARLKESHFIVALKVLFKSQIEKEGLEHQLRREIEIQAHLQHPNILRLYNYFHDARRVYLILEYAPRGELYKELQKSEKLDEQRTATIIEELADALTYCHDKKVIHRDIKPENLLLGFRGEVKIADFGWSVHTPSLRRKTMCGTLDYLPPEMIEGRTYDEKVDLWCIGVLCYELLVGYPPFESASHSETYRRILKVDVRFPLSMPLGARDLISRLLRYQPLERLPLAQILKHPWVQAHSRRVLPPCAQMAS
Sequence of Ephrin type-A receptor 3 (Homo sapiens) (P29320 whole entry, the tested form may be a part): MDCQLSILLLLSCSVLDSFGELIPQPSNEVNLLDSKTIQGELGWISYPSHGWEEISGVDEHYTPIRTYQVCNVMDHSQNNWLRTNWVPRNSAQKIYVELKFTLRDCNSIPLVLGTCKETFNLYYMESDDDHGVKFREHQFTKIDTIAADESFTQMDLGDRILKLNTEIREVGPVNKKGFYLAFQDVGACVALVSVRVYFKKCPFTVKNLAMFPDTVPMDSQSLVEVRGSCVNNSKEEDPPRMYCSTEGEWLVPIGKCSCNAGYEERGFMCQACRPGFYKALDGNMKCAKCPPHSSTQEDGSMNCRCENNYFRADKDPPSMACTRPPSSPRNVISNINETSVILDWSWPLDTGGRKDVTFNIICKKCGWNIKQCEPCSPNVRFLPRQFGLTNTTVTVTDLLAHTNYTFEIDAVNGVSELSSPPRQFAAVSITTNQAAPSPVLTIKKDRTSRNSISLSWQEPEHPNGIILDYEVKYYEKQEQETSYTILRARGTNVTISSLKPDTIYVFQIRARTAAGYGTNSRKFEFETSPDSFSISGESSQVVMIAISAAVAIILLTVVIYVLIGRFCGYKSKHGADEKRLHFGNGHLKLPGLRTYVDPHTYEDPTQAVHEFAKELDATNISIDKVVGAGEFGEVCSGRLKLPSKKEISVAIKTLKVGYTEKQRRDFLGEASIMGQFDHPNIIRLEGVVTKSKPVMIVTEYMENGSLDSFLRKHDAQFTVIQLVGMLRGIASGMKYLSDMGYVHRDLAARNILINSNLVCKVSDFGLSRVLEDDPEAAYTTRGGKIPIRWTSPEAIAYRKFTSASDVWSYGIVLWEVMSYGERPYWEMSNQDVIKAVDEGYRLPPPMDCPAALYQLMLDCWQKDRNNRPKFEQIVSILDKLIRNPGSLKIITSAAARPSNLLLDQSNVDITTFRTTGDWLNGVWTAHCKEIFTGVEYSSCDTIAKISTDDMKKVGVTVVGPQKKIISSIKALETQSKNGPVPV
Sequence of Mitogen-activated protein kinase kinase kinase kinase 2 (Homo sapiens) (Q12851 whole entry, the tested form may be a part): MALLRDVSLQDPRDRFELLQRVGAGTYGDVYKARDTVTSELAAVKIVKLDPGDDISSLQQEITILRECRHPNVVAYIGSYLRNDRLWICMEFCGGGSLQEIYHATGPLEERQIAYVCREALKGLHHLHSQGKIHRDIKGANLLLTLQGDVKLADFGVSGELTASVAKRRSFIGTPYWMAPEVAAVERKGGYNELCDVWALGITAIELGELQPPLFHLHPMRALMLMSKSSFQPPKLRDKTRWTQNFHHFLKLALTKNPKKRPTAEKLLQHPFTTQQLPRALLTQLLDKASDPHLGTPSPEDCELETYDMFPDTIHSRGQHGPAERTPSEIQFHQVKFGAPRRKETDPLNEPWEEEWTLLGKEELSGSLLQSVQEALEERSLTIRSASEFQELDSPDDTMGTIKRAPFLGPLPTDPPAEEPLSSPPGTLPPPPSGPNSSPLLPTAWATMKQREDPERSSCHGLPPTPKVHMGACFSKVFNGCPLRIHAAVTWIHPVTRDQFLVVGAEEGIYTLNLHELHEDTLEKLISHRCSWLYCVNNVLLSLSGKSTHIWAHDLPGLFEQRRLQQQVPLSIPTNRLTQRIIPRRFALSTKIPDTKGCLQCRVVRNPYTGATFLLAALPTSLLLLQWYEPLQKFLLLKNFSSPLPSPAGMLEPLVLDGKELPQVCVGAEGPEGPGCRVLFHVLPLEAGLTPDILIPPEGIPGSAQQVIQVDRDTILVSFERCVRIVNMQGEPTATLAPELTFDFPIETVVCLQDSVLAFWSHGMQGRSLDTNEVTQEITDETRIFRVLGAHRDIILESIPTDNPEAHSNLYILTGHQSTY
Sequence of Calcium/calmodulin-dependent protein kinase type 1B (Homo sapiens) (Q6P2M8 whole entry, the tested form may be a part): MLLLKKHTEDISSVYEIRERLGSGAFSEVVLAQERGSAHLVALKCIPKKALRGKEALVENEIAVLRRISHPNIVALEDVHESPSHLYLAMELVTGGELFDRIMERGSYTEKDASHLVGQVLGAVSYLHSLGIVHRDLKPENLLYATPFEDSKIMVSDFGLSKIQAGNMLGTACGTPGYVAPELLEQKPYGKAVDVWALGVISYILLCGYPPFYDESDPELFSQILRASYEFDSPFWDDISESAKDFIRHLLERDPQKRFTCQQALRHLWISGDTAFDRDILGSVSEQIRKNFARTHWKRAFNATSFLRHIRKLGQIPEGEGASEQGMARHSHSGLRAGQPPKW
Sequence of Dual specificity mitogen-activated protein kinase kinase 2 (Homo sapiens) (P36507 whole entry, the tested form may be a part): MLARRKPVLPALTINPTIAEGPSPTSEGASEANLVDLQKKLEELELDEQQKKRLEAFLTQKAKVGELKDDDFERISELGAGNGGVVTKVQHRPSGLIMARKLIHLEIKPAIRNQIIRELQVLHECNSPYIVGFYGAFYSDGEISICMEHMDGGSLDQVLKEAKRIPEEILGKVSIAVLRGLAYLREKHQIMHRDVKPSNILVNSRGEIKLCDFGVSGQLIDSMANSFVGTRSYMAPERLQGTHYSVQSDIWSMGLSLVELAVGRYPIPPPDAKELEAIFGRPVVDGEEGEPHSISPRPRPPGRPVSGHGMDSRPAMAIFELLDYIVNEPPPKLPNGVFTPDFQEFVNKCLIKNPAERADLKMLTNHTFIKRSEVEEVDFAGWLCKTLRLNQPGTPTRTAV
Sequence of Tyrosine-protein kinase Fyn (Homo sapiens) (P06241 2-537 limits assumed): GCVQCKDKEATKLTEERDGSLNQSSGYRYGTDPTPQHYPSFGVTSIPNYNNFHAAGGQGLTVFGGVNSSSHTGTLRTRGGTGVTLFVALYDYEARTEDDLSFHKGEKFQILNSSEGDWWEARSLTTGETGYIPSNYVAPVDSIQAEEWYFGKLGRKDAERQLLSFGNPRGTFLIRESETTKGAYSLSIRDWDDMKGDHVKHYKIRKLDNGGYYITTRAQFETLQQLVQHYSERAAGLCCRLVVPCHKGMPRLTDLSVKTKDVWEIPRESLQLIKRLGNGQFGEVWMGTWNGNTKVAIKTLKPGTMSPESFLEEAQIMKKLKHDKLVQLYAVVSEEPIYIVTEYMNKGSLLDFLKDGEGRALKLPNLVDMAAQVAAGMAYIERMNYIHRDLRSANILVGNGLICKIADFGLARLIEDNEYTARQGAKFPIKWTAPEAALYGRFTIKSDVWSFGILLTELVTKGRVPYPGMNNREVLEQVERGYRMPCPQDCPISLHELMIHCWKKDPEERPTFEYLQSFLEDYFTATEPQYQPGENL
Sequence of G protein-coupled receptor kinase 6 (Homo sapiens) (P43250 whole entry, looked up): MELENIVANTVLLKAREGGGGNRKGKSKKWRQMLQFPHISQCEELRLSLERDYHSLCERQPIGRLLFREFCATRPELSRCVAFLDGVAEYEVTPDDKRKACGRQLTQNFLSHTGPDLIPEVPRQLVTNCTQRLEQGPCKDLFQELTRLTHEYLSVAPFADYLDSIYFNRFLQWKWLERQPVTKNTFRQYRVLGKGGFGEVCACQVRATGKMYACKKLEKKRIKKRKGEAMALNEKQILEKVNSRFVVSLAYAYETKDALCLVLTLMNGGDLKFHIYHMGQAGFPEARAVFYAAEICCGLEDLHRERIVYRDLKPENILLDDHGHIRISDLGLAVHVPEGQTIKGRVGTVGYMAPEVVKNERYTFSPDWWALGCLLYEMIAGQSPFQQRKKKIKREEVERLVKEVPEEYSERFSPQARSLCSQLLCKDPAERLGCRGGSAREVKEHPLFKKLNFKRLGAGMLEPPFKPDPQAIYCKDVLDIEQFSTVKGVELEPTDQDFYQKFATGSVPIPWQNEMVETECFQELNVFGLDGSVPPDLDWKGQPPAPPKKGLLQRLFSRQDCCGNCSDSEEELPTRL
Sequence of Serine/threonine-protein kinase NLK (Homo sapiens) (Q9UBE8 whole entry, the tested form may be a part): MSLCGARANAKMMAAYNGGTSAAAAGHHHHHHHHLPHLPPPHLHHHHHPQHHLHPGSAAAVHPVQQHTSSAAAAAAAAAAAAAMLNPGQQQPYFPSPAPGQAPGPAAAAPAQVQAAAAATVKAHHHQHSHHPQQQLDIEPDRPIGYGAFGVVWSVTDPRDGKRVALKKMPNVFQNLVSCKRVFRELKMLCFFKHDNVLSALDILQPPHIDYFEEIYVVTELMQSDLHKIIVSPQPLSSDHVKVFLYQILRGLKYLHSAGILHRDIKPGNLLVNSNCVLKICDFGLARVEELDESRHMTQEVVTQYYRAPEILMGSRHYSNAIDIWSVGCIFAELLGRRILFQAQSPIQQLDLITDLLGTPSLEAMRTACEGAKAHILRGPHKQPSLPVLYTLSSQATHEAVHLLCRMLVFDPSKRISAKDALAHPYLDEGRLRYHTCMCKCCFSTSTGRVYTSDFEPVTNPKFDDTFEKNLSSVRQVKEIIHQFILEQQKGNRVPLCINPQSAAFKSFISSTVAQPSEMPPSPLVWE
Sequence of Serine/threonine-protein kinase Sgk2 (Homo sapiens) (Q9HBY8 whole entry, the tested form may be a part): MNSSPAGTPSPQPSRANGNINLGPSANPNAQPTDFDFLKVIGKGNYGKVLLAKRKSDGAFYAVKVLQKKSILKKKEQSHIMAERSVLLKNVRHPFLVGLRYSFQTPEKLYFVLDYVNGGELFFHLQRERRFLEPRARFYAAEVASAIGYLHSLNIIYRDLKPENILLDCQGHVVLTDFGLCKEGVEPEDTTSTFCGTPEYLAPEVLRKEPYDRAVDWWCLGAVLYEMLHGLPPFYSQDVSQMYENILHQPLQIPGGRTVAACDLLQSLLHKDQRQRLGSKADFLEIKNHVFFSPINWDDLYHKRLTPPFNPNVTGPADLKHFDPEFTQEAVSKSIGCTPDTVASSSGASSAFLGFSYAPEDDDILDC

Compound: CCOc1nc(Nc2ccc(C(=O)N3CCOCC3)cc2OC)nc2[nH]ccc12
- Activity [1]: 85.3%
- Activity [2]: 96.5%
- Activity [3]: 90.8%
- Activity [4]: 99.6%
- Activity [5]: 43.1%
- Activity [6]: 104%
- Activity [7]: 96.5%
- Activity [8]: 106%
- Activity [9]: 97.3%
- Activity [10]: 86.3%
- Activity [11]: 95.6%
- Activity [12]: 100%
- Activity [13]: 117%
- Activity [14]: 62.1%
- Activity [15]: 36.1%
- Activity [16]: 109%
- Activity [17]: 94.5%
- Activity [18]: 94.5%
- Activity [19]: 87.5%
- Activity [20]: 90.2%
- Activity [21]: 88.7%
- Activity [22]: 83.9%
